# From US20100143899A1, “METHODS AND PRODUCTS FOR DIAGNOSING CANCER” (University of Vermont and State Agricultural College, priority 2005, published 2010)
# “Also recorded” adds a separate entry of the source.
# What was measured:
# [1] = system: SYK mRNA in melanoma cell lines; experiment: Quantitative RT-PCR of SYK expression after 5AzadC treatment; assay type: cell-based, human; settings: in a subset (4/8) of cell lines with SYK methylation
# Procedure: (§1) 5AzadC treatment and microarray analysis. Cells were grown to 50% confluence in 100 mm culture plates and treated with 5 μM 5AzadC (Sigma; St. Louis, Mo.) dissolved in growth media. Fresh 5AzadC media was added every 24 hours until the end of the assay (96 hours). RNA and DNA were isolated from a batch of 5AzadC treated cells every 24 hours starting with 0 hour controls. RNA was isolated following 0 hr and 48 hr 5AzadC treatment of six melanoma cell lines (MelJuSo, UACC 903, c8161, Neo-6 c8161, WM1205 and WM35) and used for the re-expression microarray analysis. Total RNA was isolated using the RNeasy kit (Qiagen; Valencia, Calif.) according to manufacturer's instructions. […] Probe set signal calls with p values greater than 0.01 were not further evaluated. […]
# (§2) Bisulfite sequencing and quantitative PCR. […] Particular CpG sites were scored as positive if the C:T peak ratio exceeded 1:3 (at least 25% methylation). Real time quantitative PCR was performed for validation of microarray expression data of selected candidate genes by using 2.5 μl of 100 fold diluted cDNA template and 0.2 μM gene specific primers in a 25 μl PCR reaction using JumpStart SYBR green kit (Sigma) according to manufacturer's instructions in an ABI 7700. The reactions were performed in duplicate, CT values obtained were normalized to GAPDH levels and quantification was performed using the comparative CT method.
# [2] = system: HOXB13 mRNA in melanoma cell lines; experiment: Quantitative RT-PCR of HOXB13 expression after 5AzadC treatment; assay type: cell-based, human; settings: in 2 out of 3 cell lines with promoter region methylation
# Procedure: as §1, §2
# [3] = system: methylated candidate genes in melanoma cell lines; experiment: Quantitative RT-PCR of candidate genes after 5AzadC treatment; assay type: cell-based, human; settings: expression relative to melanocytes
# Procedure: as §1, §2
# [4] = system: six human melanoma cell lines (MelJuSo, UACC 903, c8161, Neo-6 c8161, WM1205 and WM35); experiment: Re-expression microarray analysis after 5AzadC treatment; assay type: cell-based; settings: 5 μM 5AzadC, 48 hours, relative to untreated cells; in at least one of the six melanoma cell lines; HG U133A microarray
# Procedure: as §1, with “instructions. Preparation of double stranded cDNA and in-vitro transcription (IVT) was as per manufacturer's recommendations. Biotinylated cRNA obtained from IVT were fragmented and hybridized on Human Genome U133A array as per manufacturer's recommendations (Affymetrix; Santa Clara, Calif.).” for “instructions.”
# In order to determine DNA methylation-related expression changes, six human melanoma cell lines were treated with 5AzadC and compared for expression changes at 48 hours post-treatment relative to untreated melanoma cell lines. […] No DNA methylation was detected in primary human melanocytes at any of the loci. […]
# [5] = system: QPCT promoter region in MelJuSo melanoma cell line; experiment: Bisulfite sequencing of promoter region after 5AzadC treatment; assay type: cell-based, human; settings: 48 h, bisulfite sequencing (FIG. 5)
# Procedure: FIG. 5A represents the original sequence for comparison (SEQ ID NO:58).
# Bisulfite sequencing and quantitative PCR. DNA was isolated from cells and tissues using standard phenol-chloroform extraction. Bisulfite modification was performed as previously described (24) on DNA from melanocytes, melanoma cell lines prior to and after 48 hr treatment with 5AzadC and DNA from melanoma tissues. PCR reactions were carried out using 50 ng of bisulfite modified DNA in a 30 μl volume with a 0.2 μM primer concentration (primer sequences are provided in the Table 2 with the amplified regions of selected genes provided in Table 3). PCR products were purified using the Qiaquick Gel Extraction kit (Qiagen) and directly sequenced on the ABI 3100-Avant automated DNA sequencer. Particular CpG sites were scored as positive if the C:T peak ratio exceeded 1:3 (at least 25% methylation). Real time quantitative PCR was performed for validation of microarray expression data of selected candidate genes by using 2.5 μl of 100 fold diluted cDNA template and 0.2 μM gene specific primers in a 25 μl PCR reaction using JumpStart SYBR green kit (Sigma) according to manufacturer's instructions in an ABI 7700. The reactions were performed in duplicate, CT values obtained were normalized to GAPDH levels and quantification was performed using the comparative CT method.
smiles,measurement,setting,value
"Nc1ncn([C@H]2C[C@H](O)[C@@H](CO)O2)c(=O)n1 [5AzadC, 5-Aza-2′-deoxycytidine]",Upregulation of SYK,[1],> 2 fold
same,Re-expression of HOXB13,[2],Re-expression of HOXB13 occurred
same,Reversal of loss of expression of promoter-methylated candidate genes,[3],could be reversed in the majority of cases
same,Increase of expression of 150 genes upon 5AzadC treatment,[4],greater than 4 fold
same,Demethylation of promoter region,[5],Demethylation was also induced; also recorded: demethylation of the promoter region
